Measurements: patent US11446281B2, “Anti-inflammatory composition comprising acylhydrazone derivative” (KOREA RESEARCH INSTITUTE OF BIOSCIENCE AND BIOTECHNOLOGY, priority 2018, dated 2022)

What was measured:
[1] = system: mouse model having dermatitis induced by oxazolone (ear); test: Visual identification of dermatitis inhibition, mice with oxazolone-induced dermatitis in ear; assay type: in vivo; conditions: 20 μl at 500 nM, total 5 times, 30 minutes after oxazolone, FIG. 4
Description: Specifically, 150 μl of 3% concentration of oxazolone was applied to an abdominal skin of a 6-week-old mouse to induce an immune response. 20 μl of the same compound diluted to 0.5% concentration was applied to the mouse's ear, total 5 times a day to induce an inflammatory reaction. Thereafter, at 30 minutes after the oxazolone application, 20 μl of each of the acylhydrazone derivative compounds was applied thereto at a concentration of 500 nM and total 5 times.
Moreover, the negative control treated only with ethanol as a solvent and the positive control treated only with oxazolone were reflected in the experiment. The number of mice in each test group was maintained at 10 or more, and the experiment was repeated twice.

[2] = system: mouse model having dermatitis induced by oxazolone (back skin); test: Visual identification of dermatitis inhibition, mice with oxazolone-induced dermatitis on back; assay type: in vivo, HR-1 (hairless) mouse; conditions: 150 μl at 500 nM applied 5 times a week, total 19 times, FIG. 1
Description: Specifically, 150 μl of 5% oxazolone (4-ethoxymethylene-2-phenyl-2-oxazolin-5-one) was applied to a back skin of a 6-week-old HR-1 (hairless) mouse, and then 150 μl of oxazolone (4-ethoxymethylene-2-phenyl-2-oxazolin-5-one) diluted into 0.1% was applied thereto 3 times a week, 11 times in total. Thus, the back skin inflammatory reaction was induced. Thereafter, 150 μl of the acylhydrazone derivative compound at a concentration of 500 nM was applied thereto 5 times a week, a total of 19 times. […] A negative control treated with only ethanol as a solvent and a positive control treated with only oxazolone were reflected in the test. The number of mice in each test group was maintained at 10 or more, and the experiment was repeated twice.

[3] = system: IL-4, IL-13 and IL-2 mRNA; test: qPCR of inflammatory cytokine mRNA in ear skin tissue of dermatitis-induced mice; assay type: in vivo, mouse; conditions: FIG. 6A to 6C
Excerpt: Inflammatory cytokines most associated with the development of dermatitis, such as atopic dermatitis are known as IL-4 and IL-13 which are secreted primarily from Th2 T cells. In order to further identify the anti-inflammatory effect of the acylhydrazone derivative compound in mice with dermatitis induced by oxazolone in Example 4, an ear skin tissue was collected to quantify the mRNA levels of IL-2 secreted from Th2 T cells, along with those of IL-4 and IL-13.
Specifically, ear skin tissues were collected from dermatitis-induced mice prepared in Example 4 and crushed using a tissue disruptor. The crushed tissue powder was dissolved in a solution of Trizol reagent (Sigma company), and RNA was extracted using an RNeasy mini kit (Qiagen company). After reverse transcription of the extracted RNA with a cDNA using ImProm-II™ Reverse Transcription kit (Promega company), a level of cytokines present in a skin tissue was measured using a CFX96 Real-Time PCR Detection System (Bio-Rad company) via a qPCR method.

K14 and K1 mRNA = test: qPCR of epidermal hyperplasia markers in ear skin tissue of dermatitis-induced mice; assay type: in vivo, mouse; conditions: FIG. 8A and 8B
Excerpt: When dermatitis is induced, pathological symptoms such as epidermal hyperplasia which thickens the skin are induced.

[4] = system: IL-4, IL-13 and IL-2 mRNA; test: qPCR of inflammatory cytokine mRNA in back skin tissue of dermatitis-induced mice; assay type: in vivo, HR-1 (hairless) mouse; conditions: FIG. 2A to 2C; for inflammatory cytokine expression compared with Cyclosporine A group: comparison with test group treated with Cyclosporine A; for expression level of the inflammatory cytokine (IL-4, IL-13, IL-2 mRNA) in skin tissue: vs positive control treated with only oxazolone, qPCR
Excerpt: Inflammatory cytokines most associated with development of dermatitis such as atopic dermatitis are known as IL-4 and IL-13 which are secreted primarily from Th2 T cells. To further identify the anti-inflammatory effect of the acylhydrazone derivative compounds in mice in which dermatitis is induced by oxazolone. A mRNA level of IL-2 as secreted from Th2 T cells and mRNA levels of IL-4 and IL-13 as the cytokines most closely related to the development of dermatitis in the inflammatory tissue were quantified.
Specifically, a skin tissue was collected from the dermatitis-induced mice produced in Example 1 and crushed using a tissue disruptor. The crushed tissue powder was dissolved in a solution of Trizol reagent (Sigma company), and RNA was extracted therefrom using an RNeasy mini kit (Qiagen company). The extracted RNA was reverse transcribed into cDNA using an ImProm-II™ Reverse Transcription kit (Promega company). Then, using a CFX96™ Real-Time PCR Detection System (Bio-Rad company), levels of the cytokines present in the skin tissue was measured based on a qPCR (quantitative PCR) method.

[5] = system: phosphorylation of p65 (RelA), NF-κB signaling pathway; test: Western blot of phosphorylated p65 in RAW macrophage cell line (NF-κB signaling pathway); assay type: cell-based, mice; conditions: RAW cells, with NF-κB inducing factors (tumor necrosis factor-α, lipopolysaccharide, or the like), 12 to 24 hours; Western blotting; FIG. 9
Description: To further identify the mechanism of action involved in the anti-inflammatory effect by the acylhydrazone derivative compound, RAW cell lines as mice-derived macrophage immune cell lines were incubated. We observed the effect of the compound according to the present disclosure on NF-κB (nuclear factor kappa-light-chain-enhancer of activated B cells) signaling pathway involved in the production of inflammatory cytokines. The NF-κB signaling pathway is involved in inflammatory reactions. In particular, it is known that when phosphorylation of p65 (RelA) is induced, phosphorylated p65 moves to the nucleus of immune cells and induces an expression of cytokines that cause inflammatory reactions.
Specifically, after incubating a predetermined amount of RAW cells (5×10^5 to 10×10^5 cells/well for a 6-well plate) in DMEM medium (containing 10% fetal calf serum), WCI-1004, WCI-1015, and WCI-1031 compounds together with factors (tumor necrosis factor-α, lipopolysaccharide, or the like) inducing the NF-κB signal transduction were applied thereto for 12 to 24 hours. A proteolytic inhibitor and a dephosphorylation inhibitor was added to RIPA lysis and extraction buffer (Thermofisher company). Protein was extracted from the RAW cells. The Western blotting process used a method commonly used in the technical field to which the present disclosure belongs, and an antibody specific to phosphorylated p65 employed a product from Cell Signaling Technology company.

[6] = system: K14 (Keratin 14), K1 (Keratin 1), FLG (Filaggrin gene) mRNA; test: qPCR of epidermal hyperplasia markers in back skin tissue of dermatitis-induced mice; assay type: in vivo, HR-1 (hairless) mouse; conditions: FIG. 3B to 3D
Excerpt: When dermatitis is induced, a pathological symptom such as epidermal hyperplasia which thickens the skin is induced.

[7] = system: ear skin tissue of dermatitis-induced mice; test: Histopathological analysis (Hematoxylin and Eosin) of ear skin tissue; assay type: in vivo, mouse; conditions: H&E staining, FIG. 5
Excerpt: For pathological observation of the skin after completion of the application experiment, an ear skin tissue of each mouse was collected and stained with Hematoxylin and Eosin.

CCOC(=O)Cn1c(C)c(/C=N/NC(=O)c2cc3c(ccc4ccccc43)o2)c2ccccc21 [WCI-1004, ethyl(2-methyl-3(E)-{[(naphtho[2,1-b]furan-2-ylcarbonyl)hydrazono]methyl}-1H-indole-1-yl)acetate]
skin condition (visual), skin inflammatory reaction [1]: a skin condition very similar to that of the negative control
skin condition (visual), skin inflammatory response [2]: skin conditions very similar to those of the negative control
level of cytokine expression (IL-4, IL-13, IL-2 mRNA) in ear skin tissue [3]: 50 % of the cytokine expression level of the positive control
expression levels of K14 and K1 (epithelial hyperplasia) (K14 and K1 mRNA): restored to a normal level
inflammatory cytokine expression compared with Cyclosporine A group [4]: lower levels of inflammatory cytokine expression than that in the skin tissue of the test group treated with Cyclosporine A
expression level of the inflammatory cytokine (IL-4, IL-13, IL-2 mRNA) in skin tissue [4]: significantly reduced
phosphorylation of p65 (RelA) [5]: effectively suppressed
mRNA expression levels of K14, K1 and FLG (epithelial hyperplasia) [6]: restored to normal levels
entire thickness of the skin [7]: reduced to a thickness very similar to that of the negative control
thickness of the epithelium [7]: reduced to a thickness very similar to that of the negative control

Cc1c(/C=N/NC(=O)c2cc3c(ccc4ccccc43)o2)c2ccccc2n1C [WCI-1015]
skin condition (visual), skin inflammatory reaction [1]: a skin condition very similar to that of the negative control
skin condition (visual), skin inflammatory response [2]: skin conditions very similar to those of the negative control
level of cytokine expression (IL-4, IL-13, IL-2 mRNA) in ear skin tissue [3]: 50 % of the cytokine expression level of the positive control
expression levels of K14 and K1 (epithelial hyperplasia) (K14 and K1 mRNA): restored to a normal level
inflammatory cytokine expression compared with Cyclosporine A group [4]: lower levels of inflammatory cytokine expression than that in the skin tissue of the test group treated with Cyclosporine A
expression level of the inflammatory cytokine (IL-4, IL-13, IL-2 mRNA) in skin tissue [4]: significantly reduced
phosphorylation of p65 (RelA) [5]: effectively suppressed
mRNA expression levels of K14, K1 and FLG (epithelial hyperplasia) [6]: restored to normal levels
entire thickness of the skin [7]: reduced to a thickness very similar to that of the negative control
thickness of the epithelium [7]: reduced to a thickness very similar to that of the negative control

COC(=O)Cn1c(C)c(/C=N/NC(=O)c2cc3c(ccc4ccccc43)o2)c2ccccc21 [WCI-1031, methyl(E)-2-(2-methyl-3-((2-(naphtho[2,1-b]furan-2-carbonyl)hydrazono)methyl)-1H-indole-1-yl)acetate]
skin condition (visual), skin inflammatory reaction [1]: a skin condition very similar to that of the negative control
skin condition (visual), skin inflammatory response [2]: skin conditions very similar to those of the negative control
level of cytokine expression (IL-4, IL-13, IL-2 mRNA) in ear skin tissue [3]: 50 % of the cytokine expression level of the positive control
expression levels of K14 and K1 (epithelial hyperplasia) (K14 and K1 mRNA): restored to a normal level
inflammatory cytokine expression compared with Cyclosporine A group [4]: lower levels of inflammatory cytokine expression than that in the skin tissue of the test group treated with Cyclosporine A
expression level of the inflammatory cytokine (IL-4, IL-13, IL-2 mRNA) in skin tissue [4]: significantly reduced
phosphorylation of p65 (RelA) [5]: effectively suppressed
mRNA expression levels of K14, K1 and FLG (epithelial hyperplasia) [6]: restored to normal levels
entire thickness of the skin [7]: reduced to a thickness very similar to that of the negative control
thickness of the epithelium [7]: reduced to a thickness very similar to that of the negative control
